Key:
[1] = system: camelpox, cowpox, monkeypox, and vaccinia viruses; conditions: cited from earlier work
Vaccinia strain IHD-J = system: Vaccinia strain IHD-J; parameters: species or system Balb/c mice; conditions: mouse, in vivo

Compound	effectiveness in treating Orthopoxvirus infections [1]	Mean (number of pocks per tail) (Vaccinia strain IHD-J)	Mean difference compared to negative control (Saline) (Vaccinia strain IHD-J)
CC(=O)OCC(CCn1cnc2cnc(N)nc21)COC(C)=O [famciclovir]	effective	–	–
Nc1nc2c(ncn2CCC(CO)CO)c(=O)[nH]1 [penciclovir]	effective	–	–
NC(=O)c1ncn([C@@H]2O[C@H](CO)[C@@H](O)[C@H]2O)n1 [ribavirin]	effective	–	–
Nc1ccn(C[C@@H](CO)OCP(=O)(O)O)c(=O)n1 [Cidofovir ™, Cidofovir]	effective	24.2	−17.7
COc1c(C)c2c(c(O)c1C/C=C(\C)CCC(=O)O)C(=O)OC2 [mycophenolic acid]	effective	–	–

From patent US20060110407A1 (priority 2001, published 2006)
